Data taken from ChEMBL document CHEMBL3232829, “Synthesis and multitarget biological profiling of a novel family of rhein derivatives as disease-modifying anti-Alzheimer agents” (J Med Chem, 2014).
Calls of active or inactive are those of the source. No cut-off for these calls is given here.

Test system: Hippocampus
Assay: Neuroprotective activity against amyloid beta-42-induced synaptic failure in C57bl6 mouse hippocampal slices assessed as increase of SYN protein level at 1 to 100 uM uM after 1 hr by Western blot analysis
Type: functional, tissue-based
Conditions: not given

SMILES	Activity
CC1=C[C@H]2Cc3nc4cc(Cl)ccc4c(NCCCCCCCCCNC(=O)c4cc(O)c5c(c4)C(=O)c4cccc(O)c4C5=O)c3[C@@H](C1)C2.Cl	Active
CC1=C[C@@H]2Cc3nc4cc(Cl)ccc4c(NCCCCCCCCCNC(=O)c4cc(O)c5c(c4)C(=O)c4cccc(O)c4C5=O)c3[C@H](C1)C2	inactive

Test system: Hippocampus
Assay: Neuroprotective activity against amyloid beta-42-induced synaptic failure in C57bl6 mouse hippocampal slices assessed as increase of PSD95 protein level at 10 to 100 uM uM after 1 hr by Western blot analysis
Type: functional, tissue-based
Conditions: not given

SMILES	Activity
CC1=C[C@@H]2Cc3nc4cc(Cl)ccc4c(NCCCCCCCCCNC(=O)c4cc(O)c5c(c4)C(=O)c4cccc(O)c4C5=O)c3[C@H](C1)C2	Active

Target: Amyloid-beta precursor protein (Homo sapiens) (UniProt P05067)
Assay: Inhibition of aggregation of amyloid beta-42 (unknown origin) expressed in Escherichia coli BL21 (DE3) assessed as amyloid fibril formation at 10 uM after 24 hrs by thioflavin S fluorescence method
Conditions: not given

Amyloid-beta precursor protein (Homo sapiens), sequence (P05067 whole entry): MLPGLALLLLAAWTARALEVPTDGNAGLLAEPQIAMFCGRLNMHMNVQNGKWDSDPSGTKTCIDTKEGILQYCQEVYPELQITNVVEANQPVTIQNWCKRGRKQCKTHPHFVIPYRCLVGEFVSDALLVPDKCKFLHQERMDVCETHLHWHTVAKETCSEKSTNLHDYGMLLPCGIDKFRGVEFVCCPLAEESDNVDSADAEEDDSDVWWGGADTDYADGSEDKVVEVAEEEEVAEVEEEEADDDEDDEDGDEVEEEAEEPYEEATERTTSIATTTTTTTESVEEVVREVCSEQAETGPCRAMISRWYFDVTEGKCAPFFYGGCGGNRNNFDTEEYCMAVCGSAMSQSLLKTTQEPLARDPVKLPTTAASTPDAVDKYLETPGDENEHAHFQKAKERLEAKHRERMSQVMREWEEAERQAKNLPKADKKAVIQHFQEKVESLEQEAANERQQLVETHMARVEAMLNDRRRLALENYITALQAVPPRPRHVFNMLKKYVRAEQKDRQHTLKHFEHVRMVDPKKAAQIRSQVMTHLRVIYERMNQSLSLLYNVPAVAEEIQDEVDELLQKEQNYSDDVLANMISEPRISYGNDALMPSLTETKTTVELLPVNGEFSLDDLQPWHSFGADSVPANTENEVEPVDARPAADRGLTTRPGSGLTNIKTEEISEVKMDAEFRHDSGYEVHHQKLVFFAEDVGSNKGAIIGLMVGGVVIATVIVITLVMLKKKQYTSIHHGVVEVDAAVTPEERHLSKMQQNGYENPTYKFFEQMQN

SMILES	inhibition
CC1=C[C@H]2Cc3nc4cc(Cl)ccc4c(NCCCCCCCCCNC(=O)c4cc(O)c5c(c4)C(=O)c4cccc(O)c4C5=O)c3[C@@H](C1)C2.Cl	58.6%
CC1=C[C@@H]2Cc3nc4cc(Cl)ccc4c(NCCCCCCCCCNC(=O)c4cc(O)c5c(c4)C(=O)c4cccc(O)c4C5=O)c3[C@H](C1)C2	47.2%
CC1=CC2Cc3nc4cc(Cl)ccc4c(NCc4ccc(CNC(=O)c5cc(O)c6c(c5)C(=O)c5cccc(O)c5C6=O)cc4)c3C(C1)C2.Cl (racemic)	57.9%

Test system: Hippocampus
Assay: Neuroprotective activity against amyloid beta-42-induced synaptic failure in C57bl6 mouse hippocampal slices assessed as induction of field excitatory postsynaptic potential at 10 uM after 1 hr by electrophysiology assay relative to control
Type: functional
Conditions: not given

SMILES	Activity
CC1=C[C@H]2Cc3nc4cc(Cl)ccc4c(NCCCCCCCCCNC(=O)c4cc(O)c5c(c4)C(=O)c4cccc(O)c4C5=O)c3[C@@H](C1)C2.Cl	200%
CC1=C[C@@H]2Cc3nc4cc(Cl)ccc4c(NCCCCCCCCCNC(=O)c4cc(O)c5c(c4)C(=O)c4cccc(O)c4C5=O)c3[C@H](C1)C2	inactive

Test system: Hippocampus
Assay: Neuroprotective activity against amyloid beta-42-induced synaptic failure in C57bl6 mouse hippocampal slices assessed as increase of GluA2 protein level at 1 to 100 uM uM after 1 hr by Western blot analysis
Type: functional, tissue-based
Conditions: not given

SMILES	Activity
CC1=C[C@H]2Cc3nc4cc(Cl)ccc4c(NCCCCCCCCCNC(=O)c4cc(O)c5c(c4)C(=O)c4cccc(O)c4C5=O)c3[C@@H](C1)C2.Cl	Active

Test system: Hippocampus
Assay: Neuroprotective activity against amyloid beta-42-induced synaptic failure in C57bl6 mouse hippocampal slices assessed as increase of GluA2 protein level at 10 to 100 uM uM after 1 hr by Western blot analysis
Type: functional, tissue-based
Conditions: not given

SMILES	Activity
CC1=C[C@@H]2Cc3nc4cc(Cl)ccc4c(NCCCCCCCCCNC(=O)c4cc(O)c5c(c4)C(=O)c4cccc(O)c4C5=O)c3[C@H](C1)C2	Active

Test system: Mus musculus
Assay: Antialzheimer activity in APP-PS1 transgenic 7 month old mouse hippocampus assessed as reduction of hexamers of amyloid beta level at 2 mg/kg, ip administered 3 times in a week for 4 weeks by immunoblot analysis
Type: functional, organism-based
Design: dose 2 mg/kg
Conditions: not given

SMILES	Activity
CC1=C[C@H]2Cc3nc4cc(Cl)ccc4c(NCCCCCCCCCNC(=O)c4cc(O)c5c(c4)C(=O)c4cccc(O)c4C5=O)c3[C@@H](C1)C2.Cl	Active
CC1=C[C@@H]2Cc3nc4cc(Cl)ccc4c(NCCCCCCCCCNC(=O)c4cc(O)c5c(c4)C(=O)c4cccc(O)c4C5=O)c3[C@H](C1)C2	Active

Test system: Mus musculus
Assay: Antialzheimer activity in APP-PS1 transgenic 11 month old mouse hippocampus assessed as reduction of dodecamer of amyloid beta level at 2 mg/kg, ip administered 3 times in a week for 4 weeks by immunoblot analysis
Type: functional, organism-based
Design: dose 2 mg/kg
Conditions: not given

SMILES	Activity
CC1=C[C@H]2Cc3nc4cc(Cl)ccc4c(NCCCCCCCCCNC(=O)c4cc(O)c5c(c4)C(=O)c4cccc(O)c4C5=O)c3[C@@H](C1)C2.Cl	Active
CC1=C[C@@H]2Cc3nc4cc(Cl)ccc4c(NCCCCCCCCCNC(=O)c4cc(O)c5c(c4)C(=O)c4cccc(O)c4C5=O)c3[C@H](C1)C2	Active

Test system: Hippocampus
Assay: Neuroprotective activity against amyloid beta-42-induced synaptic failure in C57bl6 mouse hippocampal slices assessed as increase of PSD95 protein level at 1 to 100 uM uM after 1 hr by Western blot analysis
Type: functional, tissue-based
Conditions: not given

SMILES	Activity
CC1=C[C@H]2Cc3nc4cc(Cl)ccc4c(NCCCCCCCCCNC(=O)c4cc(O)c5c(c4)C(=O)c4cccc(O)c4C5=O)c3[C@@H](C1)C2.Cl	Active

Target: Beta-secretase 1 (Homo sapiens, UniProt P56817)
Assay: Inhibition of human recombinant BACE1 using methoxycoumarin-Ser-Glu-Val-Asn-Leu-Asp-Ala-Glu-Phe-Lys-dinitrophenyl as substrate preincubated for 1 hr by FRET assay
Conditions: read-out: IC50

Beta-secretase 1, sequence (P56817 whole entry): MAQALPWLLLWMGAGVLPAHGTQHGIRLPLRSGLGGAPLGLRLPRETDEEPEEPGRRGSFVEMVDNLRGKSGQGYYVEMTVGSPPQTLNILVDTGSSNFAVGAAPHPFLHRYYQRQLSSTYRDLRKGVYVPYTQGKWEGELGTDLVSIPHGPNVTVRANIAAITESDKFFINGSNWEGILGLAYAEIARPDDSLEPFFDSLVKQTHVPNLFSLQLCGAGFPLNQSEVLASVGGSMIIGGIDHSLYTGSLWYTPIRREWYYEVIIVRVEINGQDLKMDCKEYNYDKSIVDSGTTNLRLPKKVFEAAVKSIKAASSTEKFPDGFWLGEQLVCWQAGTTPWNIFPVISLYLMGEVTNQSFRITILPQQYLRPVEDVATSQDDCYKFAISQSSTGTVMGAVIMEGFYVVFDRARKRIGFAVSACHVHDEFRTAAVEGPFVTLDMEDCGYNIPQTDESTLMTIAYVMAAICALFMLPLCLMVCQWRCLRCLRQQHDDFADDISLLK

SMILES	IC50
CC1=CC2Cc3nc4cc(Cl)ccc4c(NCc4ccc(CNC(=O)c5cc(O)c6c(c5)C(=O)c5cccc(O)c5C6=O)cc4)c3C(C1)C2.Cl (racemic)	2020 nM

Test system: Mus musculus
Assay: Antialzheimer activity in APP-PS1 transgenic 11 month old mouse hippocampus assessed as reduction of hexamers of amyloid beta level at 2 mg/kg, ip administered 3 times in a week for 4 weeks by immunoblot analysis
Type: functional, organism-based
Design: dose 2 mg/kg
Conditions: not given

SMILES	Activity
CC1=C[C@@H]2Cc3nc4cc(Cl)ccc4c(NCCCCCCCCCNC(=O)c4cc(O)c5c(c4)C(=O)c4cccc(O)c4C5=O)c3[C@H](C1)C2	inactive

Test system: Hippocampus
Assay: Neuroprotective activity against amyloid beta-42-induced synaptic failure in C57bl6 mouse hippocampal slices assessed as increase of VGlut1 protein level at 1 to 100 uM uM after 1 hr by Western blot analysis
Type: functional, tissue-based
Conditions: not given

SMILES	Activity
CC1=C[C@H]2Cc3nc4cc(Cl)ccc4c(NCCCCCCCCCNC(=O)c4cc(O)c5c(c4)C(=O)c4cccc(O)c4C5=O)c3[C@@H](C1)C2.Cl	inactive
CC1=C[C@@H]2Cc3nc4cc(Cl)ccc4c(NCCCCCCCCCNC(=O)c4cc(O)c5c(c4)C(=O)c4cccc(O)c4C5=O)c3[C@H](C1)C2	Active

Test system: Mus musculus
Assay: Antialzheimer activity in APP-PS1 transgenic 7 month old mouse hippocampus assessed as reduction of dodecamer of amyloid beta level at 2 mg/kg, ip administered 3 times in a week for 4 weeks by immunoblot analysis
Type: functional, organism-based
Design: dose 2 mg/kg
Conditions: not given

SMILES	Activity
CC1=C[C@H]2Cc3nc4cc(Cl)ccc4c(NCCCCCCCCCNC(=O)c4cc(O)c5c(c4)C(=O)c4cccc(O)c4C5=O)c3[C@@H](C1)C2.Cl	Active
CC1=C[C@@H]2Cc3nc4cc(Cl)ccc4c(NCCCCCCCCCNC(=O)c4cc(O)c5c(c4)C(=O)c4cccc(O)c4C5=O)c3[C@H](C1)C2	Active

Target: Microtubule-associated protein tau (Homo sapiens) (UniProt P10636)
Assay: Inhibition of aggregation of tau protein (unknown origin) expressed in Escherichia coli BL21 (DE3) assessed as amyloid fibril formation at 10 uM after 24 hrs by thioflavin S fluorescence method
Conditions: not given

Microtubule-associated protein tau (Homo sapiens), sequence (P10636 whole entry): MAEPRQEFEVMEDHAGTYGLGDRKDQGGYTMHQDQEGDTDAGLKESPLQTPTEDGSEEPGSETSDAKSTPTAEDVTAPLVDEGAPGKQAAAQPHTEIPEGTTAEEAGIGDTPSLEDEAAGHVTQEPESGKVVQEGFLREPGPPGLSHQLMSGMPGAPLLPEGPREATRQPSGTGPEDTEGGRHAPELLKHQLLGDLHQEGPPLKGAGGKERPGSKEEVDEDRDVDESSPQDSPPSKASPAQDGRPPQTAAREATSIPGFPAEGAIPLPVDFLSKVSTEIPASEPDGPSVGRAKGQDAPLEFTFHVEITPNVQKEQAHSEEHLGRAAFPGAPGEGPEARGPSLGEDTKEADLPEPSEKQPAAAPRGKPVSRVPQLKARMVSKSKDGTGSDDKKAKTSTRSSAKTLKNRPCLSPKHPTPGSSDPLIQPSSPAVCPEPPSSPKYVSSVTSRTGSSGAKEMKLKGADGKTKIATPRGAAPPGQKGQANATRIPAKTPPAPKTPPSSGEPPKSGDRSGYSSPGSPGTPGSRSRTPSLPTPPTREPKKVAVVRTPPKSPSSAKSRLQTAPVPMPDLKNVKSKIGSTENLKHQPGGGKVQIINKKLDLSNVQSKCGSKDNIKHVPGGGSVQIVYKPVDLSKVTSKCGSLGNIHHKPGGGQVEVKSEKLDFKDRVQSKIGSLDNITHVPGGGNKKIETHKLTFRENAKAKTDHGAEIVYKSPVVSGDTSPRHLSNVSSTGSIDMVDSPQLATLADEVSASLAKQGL

SMILES	inhibition
CC1=C[C@H]2Cc3nc4cc(Cl)ccc4c(NCCCCCCCCCNC(=O)c4cc(O)c5c(c4)C(=O)c4cccc(O)c4C5=O)c3[C@@H](C1)C2.Cl	24.9%
CC1=C[C@@H]2Cc3nc4cc(Cl)ccc4c(NCCCCCCCCCNC(=O)c4cc(O)c5c(c4)C(=O)c4cccc(O)c4C5=O)c3[C@H](C1)C2	34.3%
CC1=CC2Cc3nc4cc(Cl)ccc4c(NCc4ccc(CNC(=O)c5cc(O)c6c(c5)C(=O)c5cccc(O)c5C6=O)cc4)c3C(C1)C2.Cl (racemic)	23.1%

Test system: not listed separately
Assay: Permeability of the compound by PAMPA assay
Type: physicochemical
Conditions: read-out: permeability

SMILES	Papp
CC1=CC2Cc3nc4cc(Cl)ccc4c(NCc4ccc(CNC(=O)c5cc(O)c6c(c5)C(=O)c5cccc(O)c5C6=O)cc4)c3C(C1)C2.Cl (racemic)	16.3 ×10⁻⁶ cm/s

Test system: Hippocampus
Assay: Neuroprotective activity against amyloid beta-42-induced synaptic failure in C57bl6 mouse hippocampal slices assessed as induction of long-term potentiation at 10 uM after 1 hr by electrophysiology assay relative to control
Type: functional
Conditions: not given

SMILES	Activity
CC1=C[C@H]2Cc3nc4cc(Cl)ccc4c(NCCCCCCCCCNC(=O)c4cc(O)c5c(c4)C(=O)c4cccc(O)c4C5=O)c3[C@@H](C1)C2.Cl	200%
CC1=C[C@@H]2Cc3nc4cc(Cl)ccc4c(NCCCCCCCCCNC(=O)c4cc(O)c5c(c4)C(=O)c4cccc(O)c4C5=O)c3[C@H](C1)C2	inactive

Target: Amyloid-beta precursor protein (Homo sapiens) (UniProt P05067)
Assay: Inhibition of amyloid beta-42 (unknown origin) aggregation assessed as amyloid fibril formation at 10 uM after 24 hrs by thioflavin T fluorescence method
Conditions: not given

SMILES	inhibition
CC1=C[C@H]2Cc3nc4cc(Cl)ccc4c(NCCCCCCCCCNC(=O)c4cc(O)c5c(c4)C(=O)c4cccc(O)c4C5=O)c3[C@@H](C1)C2.Cl	38.4%
CC1=C[C@@H]2Cc3nc4cc(Cl)ccc4c(NCCCCCCCCCNC(=O)c4cc(O)c5c(c4)C(=O)c4cccc(O)c4C5=O)c3[C@H](C1)C2	43.2%
CC1=CC2Cc3nc4cc(Cl)ccc4c(NCc4ccc(CNC(=O)c5cc(O)c6c(c5)C(=O)c5cccc(O)c5C6=O)cc4)c3C(C1)C2.Cl (racemic)	32.4%

Test system: Hippocampus
Assay: Neuroprotective activity against amyloid beta-42-induced synaptic failure in C57bl6 mouse hippocampal slices assessed as increase of SYP protein level at 1 to 100 uM uM after 1 hr by Western blot analysis
Type: functional, tissue-based
Conditions: not given

SMILES	Activity
CC1=C[C@H]2Cc3nc4cc(Cl)ccc4c(NCCCCCCCCCNC(=O)c4cc(O)c5c(c4)C(=O)c4cccc(O)c4C5=O)c3[C@@H](C1)C2.Cl	inactive
CC1=C[C@@H]2Cc3nc4cc(Cl)ccc4c(NCCCCCCCCCNC(=O)c4cc(O)c5c(c4)C(=O)c4cccc(O)c4C5=O)c3[C@H](C1)C2	inactive
